Source: patent US8906908B2, “Hydroxybupropion analogues for treating drug dependence” (priority 2010, dated 2014)
Like-named read-outs stand apart in the source and are kept apart here.

What was measured:
[1] = tested on: Male Institute of Cancer Research (ICR) mice; assay: Tail-flick test, blockade of nicotine-induced antinociception; format: in vivo; settings: mice, pretreatment 15 min before nicotine 2.5 mg/kg s.c., tested 5 min after nicotine; for ED50: Mus musculus, 5 min, read-out: AD50 Tail-flick
Source text: (§1) Animals: Male Institute of Cancer Research (ICR) mice (weighing 20-25 g) obtained from Harlan (Indianapolis, Ind.) were used throughout the study. Animals were housed in an Association for Assessment and Accreditation of Laboratory Animal Care-approved facility, were placed in groups of six, and had free access to food and water. Studies were approved by the Institutional Animal Care and Use Committee of Virginia Commonwealth University.
Tail-Flick Test: Antinociception for pain mediated at the spinal level was assessed by the tail-flick method of D'Amour, F. E.; Smith, D. L., J. Pharmacol. Exp. Ther. 1941, 72, 74-79, incorporated herein by reference in its entirety. In brief, mice were lightly restrained while a radiant heat source was shone onto the upper portion of the tail. To minimize tissue damage, a maximum latency of 10 s was imposed. Latency to remove the tail from the heat source was recorded for each animal. […] Antinociceptive response was calculated as the percentage of maximum possible effect (% MPE), where % MPE=[(test control)/(10 control)]×100.

[2] = tested on: Male Institute of Cancer Research (ICR) mice; assay: Hot-plate test, blockade of nicotine-induced antinociception; format: in vivo; settings: pretreatment 15 min before nicotine 2.5 mg/kg s.c., tested 5 min after nicotine; for ED50: Mus musculus, read-out: AD50 Hot-plate
Source text: as §1
Hot-Plate Test: Mice were placed into a 10-cm wide glass cylinder on a hot plate (Thermojust Apparatus) maintained at 55° C. for assessment of pain responses mediated at supraspinal levels. To minimize tissue damage, a maximum exposure to the hot plate 40 s was imposed. Measures of control latencies (time until the animal jumped or licked its paws; typically 8-12 s) were done twice for stimuli applied at least 10 min apart for each mouse. Antinociceptive responses after test drug administrations were determined and calculated as the % MPE, where % MPE=[(test latency in s−control latency in s)/(40 s−control latency in s)×100]. Groups of 8 to 12 animals were used for each drug condition. […] The animals were then tested 5 min after administration of a subcutaneous dose of 2.5 mg/kg nicotine.

[3] = tested on: Male Institute of Cancer Research (ICR) mice; assay: Body temperature, antagonism of nicotine-induced hypothermia; format: in vivo; settings: pretreatment 15 min before nicotine 2.5 mg/kg s.c., tested 30 min after nicotine
Protocol: as §1
Body Temperature: Rectal temperature was measured by a thermistor probe (inserted 24 mm) and digital thermometer (YSI Inc., Yellow Springs, Ohio). Readings were taken just before and 30 min after subcutaneous injection of either saline or 2.5 mg/kg nicotine. The difference in rectal temperature before and after treatment was calculated for each mouse. The ambient temperature of the laboratory varied from 21 to 24° C. from day to day. […] The animals were then tested 30 min after administration of a subcutaneous dose of 2.5 mg/kg nicotine.

[4] = biological target: T1, α4β2-nAChR (Homo sapiens, UniProt P17787+P43681); assay: 86Rb+ efflux nAChR functional assay, SH-EP1-hα4β2 cells; format: cell-based; settings: EC80-EC90 carbamylcholine; SH-EP1-hα4β2; parentheses = S.E.M. as multiplication/division factor; read-out: nAChR inhibition IC50 α4β2
T1 construct: expressed in transfected cells; host or cells: SH-EP1 epithelial cells (SH-EP1-hα4β2)
Source text: (§2) Cell Lines and Culture: Human embryonic kidney (HEK-293) cells stably expressing human DAT, NET or SERT were maintained as previously described in Eshleman, A. J.; Carmolli, M.; Cumbay, M.; Martens, C. R.; Neve, K. A.; Janowsky, A., J. Pharmacol. Exp. Ther. 1999, 289, (2), 877-885. Use was made of several human cell lines that naturally or heterologously express specific, functional, human nAChR subtypes. Cells of the TE671/RD line naturally expresses muscle-type nAChR (a1β1γδ- or α1*-nAChR), and SH-SY5Y neuroblastoma cells naturally expresses autonomic α3β4*-nAChRs (containing α3, β4, probably α5, and sometimes β2 subunits). Different clones of SH-EP1 epithelial cell lines have been engineered to heterologously express either α4β2-nAChR, which are thought to be the most abundant, high affinity nicotine-binding nAChR in mammalian brain, or α4β4-nAChR, another possible brain nAChR subtype (SH-EP1-hα4β2 or α4β4 cells, respectively). These cells were maintained as low passage number (1-26 from our frozen stocks) cultures to ensure stable expression of native or heterologously-expressed nAChR as previously described (see Lukas, R. J.; Fryer, J. D.; Eaton, J. B.; L., G. C., Some methods for studies of nicotinic acetylcholine receptor pharmacology, in Nicotinic receptors and the Nervous System, Levine, E. D., Ed. CRC Press: Boca Raton, 2002; pp 3-27, incorporated herein by reference in its entirety). Cells were passaged once weekly by splitting just-confluent cultures 1/300 (TE671/RD), 1/5 (SH-SY5Y), or 1/20 (transfected SH-EP1) in serum-supplemented medium to maintain log-phase growth.
(§3) After cells had adhered (generally overnight, but no sooner than 4 h later), the medium was removed and replaced with 250 μL per well of complete medium supplemented with ˜350,000 cpm of ^86Rb^+ (PerkinElmer Life and Analytical Sciences, Boston, Mass.) and counted at 40% efficiency using Cerenkov counting (TriCarb 1900 liquid scintillation analyzer[…]; PerkinElmer Life Sciences).
(§4) After at least 4 h and typically overnight, ^86Rb^+ efflux was measured using the “flip-plate” technique. See Lukas, R. J.; Fryer, J. D.; Eaton, J. B.; L., G. C., Some methods for studies of nicotinic acetylcholine receptor pharmacology, in Nicotinic receptors and the Nervous System, Levine, E. D., Ed. CRC Press: Boca Raton, 2002; pp 3-27, incorporated herein by reference in its entirety). Briefly, after aspiration of the bulk of ^86Rb^+ loading medium from each well of the “cell plate,” each well containing cells was rinsed 3× with 2 mL of fresh ^86Rb^+ efflux buffer (130 mM NaCl, 5.4 mM KCl, 2 mM CaCl2, 5 mM glucose, 50 mM HEPES, pH 7.4) to remove extracellular ^86Rb^+. Following removal of residual rinse buffer by aspiration, the flip-plate technique was used again to simultaneously introduce 1.5 mL of fresh efflux buffer containing drugs of choice at indicated final concentrations from a 24-well “efflux/drug plate” into the wells of the cell plate. After a 5 min incubation, the solution was “flipped” back into the efflux/drug plate, and any remaining buffer in the cell plate was removed by aspiration. Cells remaining in the cell plate were lysed and suspended by addition of 1.5 mL of 0.1 M NaOH, 0.1% sodium dodecyl sulfate to each well.
(§5) Similarly, the sum of ^86Rb^+ in cell plates and efflux/drug plates also determined the efficiency of ^86Rb^+ loading (the percentage of applied ^86Rb^+ actually loaded into cells).
(§6) Specific efflux was then taken as the difference in control samples between total and non-specific ^86Rb^+ efflux. Any intrinsic agonist activity of test drugs was ascertained using samples containing test drug only at different concentrations and was normalized, after subtraction of non-specific efflux, to specific efflux in test drug-free, control samples.

[5] = biological target: T2, muscle-type nAChR (α1β1γδ- or α1*-nAChR) (Homo sapiens, UniProt P02708+P07510+P11230+Q07001); assay: 86Rb+ efflux nAChR functional assay, TE671/RD cells; format: cell-based; settings: nAChR inhibition IC50 α1*β1, EC80-EC90 carbamylcholine, parentheses = S.E.M. as multiplication/division factor
T2 construct: Cells of the TE671/RD line naturally expresses muscle-type nAChR; endogenous in cells; host or cells: TE671/RD cells
Source text: as §2, §3, §4, §5, §6

[6] = biological target: T3, 5HT transporters [(h)SERT] (Homo sapiens, UniProt P31645); assay: Inhibition of [3H]serotonin uptake into HEK293 cells stably expressing hSERT; format: cell-based
T3 construct: expressed in transfected cells; host or cells: HEK-293
Source text: as §2
(§7) See, for example, Damaj, M. I.; Carroll, F. I.; Eaton, J. B.; Navarro, H. A.; Blough, B. E.; Mirza, S.; Lukas, R. J.; Martin, B. R., Mol. Pharmacol. 2004, 66, (3), 675-682 and Eshleman, A. J.; Carmolli, M.; Cumbay, M.; Martens, C. R.; Neve, K. A.; Janowsky, A., J. Pharmacol. Exp. Ther. 1999, 289, (2), 877-885, both incorporated by reference herein in their entireties.

[7] = biological target: T4, α4β4-nAChR (Homo sapiens, UniProt P30926+P43681); assay: 86Rb+ efflux nAChR functional assay, SH-EP1-hα4β4 cells; format: cell-based; settings: EC80-EC90 carbamylcholine, parentheses = S.E.M. as multiplication/division factor, read-out: nAChR inhibition IC50 α4β4
T4 construct: expressed in transfected cells; host or cells: SH-EP1 epithelial cells (SH-EP1-hα4β4)
Source text: as §2, §3, §4, §5, §6

[8] = biological target: T5, human DA transporters [(h)DAT] (Homo sapiens, UniProt Q01959); assay: Inhibition of [3H]dopamine uptake into HEK293 cells stably expressing hDAT; format: cell-based
T5 construct: expressed in transfected cells; host or cells: HEK-293
Source text: as §2, §7

[9] = biological target: T6, NE transporters [h(NET)] (Homo sapiens, UniProt P23975); assay: Inhibition of [3H]norepinephrine uptake into HEK293 cells stably expressing hNET; format: cell-based; settings: HEK293-hNET; mean ± standard error of three independent experiments; read-out: monoamine uptake inhibition IC50 [3H]NE
T6 construct: expressed in transfected cells; host or cells: HEK-293
Source text: as §2, §7

[10] = tested on: Male Institute of Cancer Research (ICR) mice; assay: Locomotor activity, antagonism of nicotine effect; format: in vivo; settings: for AD50 Locomotion: pretreatment 15 min before nicotine […] s.c.
Source text: as §1
Locomotor Activity: Mice were placed into individual Omnitech photocell activity cages (28×16.5 cm; Omnitech Electronics, Columbus, Ohio) 5 min after subcutaneous administration of either 0.9% saline or nicotine (1.5 mg/kg). Interruptions of the photocell beams (two banks of eight cells each) were then recorded for the next 10 min. Data were expressed as the number of photocell interruptions.

T4 sequence (P43681 29-627 limits assumed): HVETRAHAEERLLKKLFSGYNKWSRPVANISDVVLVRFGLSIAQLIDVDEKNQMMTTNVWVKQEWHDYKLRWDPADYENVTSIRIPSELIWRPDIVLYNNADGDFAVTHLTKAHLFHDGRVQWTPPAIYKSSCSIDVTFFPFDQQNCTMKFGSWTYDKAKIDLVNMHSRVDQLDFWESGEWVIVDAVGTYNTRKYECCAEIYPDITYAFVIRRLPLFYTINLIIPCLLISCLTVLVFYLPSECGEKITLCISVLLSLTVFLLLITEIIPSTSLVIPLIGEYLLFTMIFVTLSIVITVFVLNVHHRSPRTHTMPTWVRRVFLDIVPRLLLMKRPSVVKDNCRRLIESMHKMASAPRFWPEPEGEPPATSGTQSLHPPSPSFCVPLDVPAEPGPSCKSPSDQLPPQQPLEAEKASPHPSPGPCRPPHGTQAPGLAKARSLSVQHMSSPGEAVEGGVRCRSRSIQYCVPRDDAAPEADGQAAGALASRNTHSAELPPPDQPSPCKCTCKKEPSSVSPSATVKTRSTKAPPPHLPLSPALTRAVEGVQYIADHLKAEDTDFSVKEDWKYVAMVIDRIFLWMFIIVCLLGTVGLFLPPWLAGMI
T4 sequence (P30926 22-498): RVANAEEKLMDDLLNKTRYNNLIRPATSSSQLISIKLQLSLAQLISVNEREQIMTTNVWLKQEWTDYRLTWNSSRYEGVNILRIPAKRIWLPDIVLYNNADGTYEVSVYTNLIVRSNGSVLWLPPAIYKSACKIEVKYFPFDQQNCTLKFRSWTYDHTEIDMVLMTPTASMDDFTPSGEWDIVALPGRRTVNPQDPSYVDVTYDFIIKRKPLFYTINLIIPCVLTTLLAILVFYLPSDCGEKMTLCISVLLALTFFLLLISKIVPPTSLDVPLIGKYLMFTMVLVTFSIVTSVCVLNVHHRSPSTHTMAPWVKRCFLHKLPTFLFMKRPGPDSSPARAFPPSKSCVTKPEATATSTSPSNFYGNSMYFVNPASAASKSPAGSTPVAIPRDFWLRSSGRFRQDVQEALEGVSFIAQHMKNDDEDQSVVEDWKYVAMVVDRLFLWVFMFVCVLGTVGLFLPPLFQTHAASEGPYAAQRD
T1 sequence (P43681 29-627 limits assumed): as the sequence (P43681 29-627 limits assumed) above
T1 sequence (P17787 26-502): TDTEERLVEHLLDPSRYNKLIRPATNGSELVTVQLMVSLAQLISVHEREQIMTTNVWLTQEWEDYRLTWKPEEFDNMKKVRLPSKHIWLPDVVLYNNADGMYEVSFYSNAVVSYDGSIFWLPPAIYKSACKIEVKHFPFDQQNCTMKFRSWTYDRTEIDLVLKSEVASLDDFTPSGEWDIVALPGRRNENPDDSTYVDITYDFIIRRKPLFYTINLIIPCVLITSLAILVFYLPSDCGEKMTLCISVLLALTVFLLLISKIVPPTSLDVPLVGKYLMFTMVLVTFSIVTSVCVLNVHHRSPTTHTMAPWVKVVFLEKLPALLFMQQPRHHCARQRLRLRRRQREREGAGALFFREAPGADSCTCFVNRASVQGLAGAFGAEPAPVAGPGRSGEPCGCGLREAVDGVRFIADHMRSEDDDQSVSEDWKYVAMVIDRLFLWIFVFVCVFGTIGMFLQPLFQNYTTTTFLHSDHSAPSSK
T6 sequence (P23975 whole entry): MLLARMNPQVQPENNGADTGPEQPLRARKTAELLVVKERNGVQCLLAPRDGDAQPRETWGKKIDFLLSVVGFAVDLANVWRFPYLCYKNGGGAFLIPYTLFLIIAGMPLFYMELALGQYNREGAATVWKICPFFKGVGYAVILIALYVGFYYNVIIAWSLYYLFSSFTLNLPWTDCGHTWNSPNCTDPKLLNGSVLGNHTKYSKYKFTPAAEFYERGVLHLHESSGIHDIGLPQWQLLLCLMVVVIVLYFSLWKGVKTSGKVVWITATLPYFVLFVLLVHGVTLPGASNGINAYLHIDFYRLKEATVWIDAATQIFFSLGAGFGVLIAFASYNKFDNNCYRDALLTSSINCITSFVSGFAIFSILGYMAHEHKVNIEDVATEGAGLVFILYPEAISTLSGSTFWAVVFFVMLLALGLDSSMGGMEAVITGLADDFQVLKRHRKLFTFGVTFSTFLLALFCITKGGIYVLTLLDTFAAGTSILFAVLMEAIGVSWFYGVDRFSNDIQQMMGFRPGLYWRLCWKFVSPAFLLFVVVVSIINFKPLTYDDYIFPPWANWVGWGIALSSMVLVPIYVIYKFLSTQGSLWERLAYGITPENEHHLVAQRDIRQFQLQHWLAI
T5 sequence (Q01959 whole entry): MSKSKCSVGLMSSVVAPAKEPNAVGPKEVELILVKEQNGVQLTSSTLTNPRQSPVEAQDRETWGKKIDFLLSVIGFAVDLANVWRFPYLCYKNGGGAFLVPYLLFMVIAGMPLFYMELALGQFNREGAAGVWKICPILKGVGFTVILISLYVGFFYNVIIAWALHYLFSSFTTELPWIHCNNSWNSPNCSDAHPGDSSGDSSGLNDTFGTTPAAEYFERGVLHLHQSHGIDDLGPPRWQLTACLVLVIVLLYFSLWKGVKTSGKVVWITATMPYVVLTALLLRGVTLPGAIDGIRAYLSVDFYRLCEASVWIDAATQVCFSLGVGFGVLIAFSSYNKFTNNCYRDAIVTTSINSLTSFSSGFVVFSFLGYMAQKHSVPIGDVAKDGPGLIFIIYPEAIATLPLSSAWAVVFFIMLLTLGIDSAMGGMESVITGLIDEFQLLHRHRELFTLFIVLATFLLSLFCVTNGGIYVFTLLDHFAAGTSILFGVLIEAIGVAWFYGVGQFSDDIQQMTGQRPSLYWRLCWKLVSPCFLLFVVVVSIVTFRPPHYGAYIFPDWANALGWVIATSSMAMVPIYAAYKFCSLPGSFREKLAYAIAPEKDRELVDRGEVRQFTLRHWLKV
T2 sequence (P02708 21-457): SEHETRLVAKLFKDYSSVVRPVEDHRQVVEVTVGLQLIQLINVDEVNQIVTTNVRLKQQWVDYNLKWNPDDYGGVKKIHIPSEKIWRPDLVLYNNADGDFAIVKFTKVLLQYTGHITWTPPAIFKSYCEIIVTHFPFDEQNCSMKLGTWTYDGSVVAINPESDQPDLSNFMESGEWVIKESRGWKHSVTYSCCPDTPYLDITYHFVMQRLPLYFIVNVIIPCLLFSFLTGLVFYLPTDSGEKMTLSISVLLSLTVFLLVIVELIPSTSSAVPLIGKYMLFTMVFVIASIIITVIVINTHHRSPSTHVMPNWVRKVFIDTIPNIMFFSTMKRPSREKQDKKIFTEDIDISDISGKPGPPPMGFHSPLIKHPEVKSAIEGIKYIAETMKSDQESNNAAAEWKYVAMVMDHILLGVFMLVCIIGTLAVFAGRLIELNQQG
T2 sequence (P11230 24-501): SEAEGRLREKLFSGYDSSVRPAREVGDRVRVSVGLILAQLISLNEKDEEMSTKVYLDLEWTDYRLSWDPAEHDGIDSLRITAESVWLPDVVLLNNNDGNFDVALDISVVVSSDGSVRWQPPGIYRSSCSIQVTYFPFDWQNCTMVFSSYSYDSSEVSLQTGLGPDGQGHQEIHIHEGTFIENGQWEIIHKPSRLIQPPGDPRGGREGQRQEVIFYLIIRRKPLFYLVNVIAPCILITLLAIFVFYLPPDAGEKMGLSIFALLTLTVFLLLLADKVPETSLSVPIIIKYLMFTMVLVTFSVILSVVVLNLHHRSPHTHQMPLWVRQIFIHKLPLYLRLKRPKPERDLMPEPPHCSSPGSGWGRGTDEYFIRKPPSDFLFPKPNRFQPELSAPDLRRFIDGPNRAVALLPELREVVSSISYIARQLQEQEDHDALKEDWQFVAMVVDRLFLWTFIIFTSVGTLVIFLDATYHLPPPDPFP
T2 sequence (P07510 23-517): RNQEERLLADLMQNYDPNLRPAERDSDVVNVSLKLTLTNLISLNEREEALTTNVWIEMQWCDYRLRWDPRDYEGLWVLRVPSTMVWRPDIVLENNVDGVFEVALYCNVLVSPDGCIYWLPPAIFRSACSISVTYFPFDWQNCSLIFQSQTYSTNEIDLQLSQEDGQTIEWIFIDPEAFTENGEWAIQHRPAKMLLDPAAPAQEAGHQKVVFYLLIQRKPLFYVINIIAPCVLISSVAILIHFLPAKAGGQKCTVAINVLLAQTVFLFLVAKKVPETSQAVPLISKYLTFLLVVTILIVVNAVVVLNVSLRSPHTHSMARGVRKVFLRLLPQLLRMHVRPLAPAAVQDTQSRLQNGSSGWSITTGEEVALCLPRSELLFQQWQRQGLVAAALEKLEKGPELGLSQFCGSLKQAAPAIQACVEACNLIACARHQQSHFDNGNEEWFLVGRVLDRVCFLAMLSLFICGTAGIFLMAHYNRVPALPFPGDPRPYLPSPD
T2 sequence (Q07001 22-517): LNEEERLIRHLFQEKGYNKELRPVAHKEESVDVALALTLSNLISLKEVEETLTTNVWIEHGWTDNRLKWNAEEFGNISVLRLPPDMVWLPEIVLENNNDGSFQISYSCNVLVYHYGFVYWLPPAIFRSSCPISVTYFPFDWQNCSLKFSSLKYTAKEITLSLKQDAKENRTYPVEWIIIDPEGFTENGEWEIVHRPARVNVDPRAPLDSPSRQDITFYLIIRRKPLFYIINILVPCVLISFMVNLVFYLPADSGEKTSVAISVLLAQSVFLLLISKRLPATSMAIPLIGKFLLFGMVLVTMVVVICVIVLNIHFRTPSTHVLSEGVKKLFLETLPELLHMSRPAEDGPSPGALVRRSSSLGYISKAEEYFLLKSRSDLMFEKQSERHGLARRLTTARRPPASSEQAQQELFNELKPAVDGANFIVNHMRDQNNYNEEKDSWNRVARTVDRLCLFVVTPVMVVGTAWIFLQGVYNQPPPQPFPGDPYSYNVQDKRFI

SMILES | ED50 [1] [mg/kg] | ED50 [2] [mg/kg] | AD50 Hot-plate [2] | AD50 Hypothermia [3] | IC50 [4] [µM] | IC50 [5] [µM] | IC50 [7] [µM] | IC50 [9] [µM] | AD50 Locomotion [10] | other results
CC(NC(C)(C)C)C(=O)c1cccc(Cl)c1 (racemic) [Compound 2, (±)-2-tert-butylamino-3′-chloropropiophenone, reference compound] | 1.2 | 15 | 15 mg/kg | 9.2 mg/kg |  |  |  |  |  | AD50 Tail-flick [1]: 1.2 mg/kg; ED50 ([3]; Mus musculus, 0.5 h, read-out: AD50 Hypothermia): 9.2 mg/kg
CC1NC(C)(C)COC1(O)c1cccnc1 (racemic) [Compound 5, 3,5,5-Trimethyl-2-(pyridin-3-yl)morpholin-2-ol] |  |  |  |  | > 100 | > 100 | > 100 | > 10 |  | IC50 [6]: > 10 µM; IC50 ([8]; HEK293-hDAT, mean ± standard error of three independent experiments, read-out: monoamine uptake inhibition IC50 [3H]DA): > 10 µM
CC1NC(C)(C)COC1(O)c1ccccn1 (racemic) [Compound 6, 3,5,5-Trimethyl-2-(pyridin-2-yl)morpholin-2-ol] |  |  |  |  | > 100 | > 100 | > 100 | 7.95 ± 1.8 |  | IC50 ([6]; HEK293-hSERT, mean ± standard error of three independent experiments, read-out: monoamine uptake inhibition IC50 [3H]5HT): > 10 µM; IC50 [8]: > 10 µM
CCC[C@@H]1NC(C)(C)CO[C@@]1(O)c1cccc(Cl)c1 [Compound 4t, (2S,3S)-2-(3-Chlorophenyl)-5,5-dimethyl-3-propyl-morpholin-2-ol] | 0.004 |  | IA (IA: AD50 > 15 mg/kg) | IA (IA: AD50 > 15 mg/kg) |  |  |  |  | 4.7 mg/kg | 
C[C@H]1NC(C)(C)CO[C@]1(O)c1cccc(Cl)c1 [Compound (2R,3R)-4a, (2R,3R)-2-(3-Chlorophenyl)-3,5,5-trimethylmorpholin-2-ol, reference compound] | 2.5 | 10.3 |  | IA (IA: AD50 > 15 mg/kg) |  |  |  |  | IA (IA: AD50 > 15 mg/kg) | 
C[C@@H]1NC(C)(C)CO[C@@]1(O)c1cccc(Cl)c1 [Compound (2S,3S)-4a, (2S,3S)-2-(3-Chlorophenyl)-3,5,5-trimethylmorpholin-2-ol, reference compound] | 0.2 | 1 | 1 mg/kg |  |  |  |  |  | 0.9 mg/kg | ED50 ([10]; Mus musculus, pretreatment 15 min before nicotine 1.5 mg/kg s.c., read-out: AD50 Locomotion): 0.9 mg/kg
